Our source for the GI50 values is US20090181972A1, “Novel Inhibitors of Cysteine Proteases, the Pharmaceutical Compositions Thereof and their Therapeutic Applications” (priority 2005, published 2009).

The term GI50 denotes the concentration that inhibits growth by half.

Test [1] relates to PC-3 prostate cancer cells. Kind of test: PC3 cell viability and proliferation assay (MTS). The class given is cell-based. Conditions: Homo sapiens, PC-3, 72 hours incubation, mean of three independent experiments, read-out: PC3 GI50 D3. As for the experimental part:
PC-3 prostate cancer cells were obtained from ATCC, and maintained in F-12K medium containing 7% FBS and 1% penicillin/streptomycin. Cells were incubated at 37° C. in a humidified atmosphere containing 5% CO2.
Cell viability was assayed using the MTS technique in 96-well culture plates (CellTiter 96® Aqueous Non-Radioactive Cell Proliferation Assay, Promega) according to the manufacturer's instructions. MTS (3-(4,5-dimethyl-thiazol-2-yl)-5-(3-carboxymethoxyphenyl)-2-(4-sulfophenyl)-2H-tetrazolium) is a MTT-derived tetrazolium that is reduced in metabolically active cells into a soluble, cell-permeant formazan. The amount of formazan, detected by its absorbance at 492 nm is proportional to the number of living, metabolically active cells.
2×10^3 PC3 cells were seeded per well. 24 hours later, the medium was changed and the cells treated in triplicate with the following concentrations of each compound: 10 μM-3.33 μM-1.11 μM-370 nM-123 nM-41 nM-14 nM and 5 nM. The compounds were diluted in 100% DMSO, whose final concentration on cells was kept at 0.5%.
Cells were incubated with the compounds for 72 hours, and their viability then assayed by the addition of MTS for 2 hours. Absorbance at 492 nm was measured directly from the 96-well culture plates. GI50 (Growth Inhibition 50) concentrations for each compound were calculated using a sigmoidal variable slope fit (Prism 4.0, Graphpad Softwares). Values represent mean of three independent experiments.

In test [2] the test system is HCT116 colon cancer cells. Kind of test: HCT116 cell viability and proliferation assay (MTS). The format is cell-based. Conditions: Homo sapiens, HCT-116, 72 hours incubation, mean of three independent experiments, read-out: HCT116 GI50 D3. As for the experimental part:
HCT116 colon cancer cells were obtained from ATCC (American Type Culture Collection), and maintained in Mc Coy's 5A medium containing 10% FBS, 3 mM glutamine and 1% penicillin/streptomycin. Cells were incubated at 37° C. in a humidified atmosphere containing 5% CO2.
Cell viability was assayed using the MTS technique in 96-well culture plates (CellTiter 96® Aqueous Non-Radioactive Cell Proliferation Assay, Promega) according to the manufacturer's instructions. MTS (3-(4,5-dimethyl-thiazol-2-yl)-5-(3-carboxymethoxyphenyl)-2-(4-sulfophenyl)-2H-tetra-zolium) is a MTT-derived tetrazolium that is reduced in metabolically active cells into a soluble, cell-permeant formazan. The amount of formazan, detected by its absorbance at 492 nm is proportional to the number of living, metabolically active cells.
10^3 HCT116 cells were seeded per well. 24 hours later, the medium was changed and the cells treated in triplicate with the following concentrations of each compound: 10 μM-3.33 μM-1.11 μM-370 nM-123 nM-41 nM-14 nM and 5 nM. The compounds were diluted in 100% DMSO, whose final concentration on cells was kept at 0.5%.
Cells were incubated with the compounds for 72 hours, and their viability then assayed by the addition of MTS for 2 hours. Absorbance at 492 nm was measured directly from the 96-well culture plates. G150 (Growth Inhibition 50) concentrations for each compound were calculated using a sigmoidal variable slope fit (Prism 4.0, Graphpad Softwares). Values represent mean of three independent experiments.

Turning to `CCCc1nnc2nc3c(nn12)-c1ccccc1C3=O` [Example 1e/B, 3-Propyl-1,2,3a,4,10-pentaaza-cyclopenta[b]fluoren-9-one], the GI50 in test [1] was 0.175 µM; in test [2], 0.067 µM.

As for `CCCCc1nnc2nc3c(nn12)C(=O)c1ccccc1-3` [Example 1f/A, 1-Butyl-2,3,4,10,10a-pentaaza-cyclopenta[b]fluoren-9-one], the GI50 was found to be 3.8 µM in test [1] and 1.36 µM in test [2].

Take `CCc1nnc2nc3c(nn12)C(=O)c1ccccc1-3` [Example 1d/A, 1-Ethyl-2,3,4,10,10a-pentaaza-cyclopenta[b]fluoren-9-one]: the GI50 is 5.4 µM in test [1] and 1.4 µM in test [2].

Regarding `Nc1nnc2nc3c(nn12)C(=O)c1ccccc1-3` [Example 1c/A, 1-Amino-2,3,4,10,10a-pentaaza-cyclopenta[b]fluoren-9-one], in test [2], the 50% growth inhibitory concentration (GI50) stood at 8.5 µM.

As for `CC(C)Cc1nnc2nc3c(nn12)-c1ccccc1C3=O` [Example 1g/B, 3-Isobutyl-1,2,3a,4,10-pentaaza-cyclopenta[b]fluoren-9-one], the GI50 in test [1] was found to be 0.162 µM; in test [2], 0.053 µM.

Consider `CCCCc1nnc2nc3c(nn12)-c1ccccc1C3=O` [Example 1f/B, 3-Butyl-1,2,3a,4,10-pentaaza-cyclopenta[b]fluoren-9-one], for which the GI50 was determined as 0.096 µM in test [1] and 0.04 µM in test [2].

For `Cc1nnc2nc3c(nn12)-c1ccccc1C3=O` [Example 1b/B, 3-Methyl-1,2,3a,4,10-pentaaza-cyclopenta[b]fluoren-9-one], the GI50 in test [1] came out at 0.334 µM; in test [2], 0.084 µM.

Turning to `CCc1nnc2nc3c(nn12)-c1ccccc1C3=O` [Example 1d/B, 3-Ethyl-1,2,3a,4,10-pentaaza-cyclopenta[b]fluoren-9-one], the figures for the GI50 in test [1] and in test [2] were 0.256 µM and 0.059 µM, respectively.

For `Cc1nnc2nc3c(nn12)-c1ccc(Cl)cc1C3=O` [Example 3/B, 7-Chloro-3-methyl-1,2,3a,4,10-pentaaza-cyclopenta[b]fluoren-9-one], the GI50 in test [1] turned out to be 0.286 µM; in test [2], 0.098 µM.

With `COCc1nnc2nc3c(nn12)-c1ccccc1C3=O` [Example 1i/B, 3-Methoxymethyl-1,2,3a,4,10-pentaaza-cyclopenta[b]fluoren-9-one], the GI50 amounted to 0.238 µM in test [1] and 0.065 µM in test [2].

Regarding `O=C1c2ccccc2-c2nn3c(CO)nnc3nc21` [Example 1h/B, 3-Hydroxymethyl-1,2,3a,4,10-pentaaza-cyclopenta[b]fluoren-9-one], the GI50 in test [1] stood at 1.44 µM; in test [2] it was 0.323 µM.
